target: T1, cytoplasmic kinase domain of human IGF-1R (IGF-1R-GST) (Homo sapiens, UniProt P08069); assay: Insulin-like growth factor-1 receptor (IGF-1R) kinase assay (DELFIA); format: biochemical; conditions: IGF-1R-GST kinase activity, read-out: IGF1R IC50
T1 construct: cytoplasmic kinase domain of human IGF-1R (amino acids 964-1370); GST (glutathione-S-transferase); made in house; host or cells: High Five insect cells (Invitrogen)
Protocol: Insulin-Like Growth Factor-1 Receptor (IGF-1R)-Kinase Assay
The kinase activity is measured by DELFIA® assay (dissociation-enhanced lanthanide fluorescence immunoassay, Perkin Elmer). […] Enzyme activity is measured in the presence of substances and a control substance. Poly-glutamate-tyrosine peptide (pEY, Sigma Aldrich) and biotinylated pEY (bio-pEY) are used as reaction substrates.
After 40 min at RT the reactions are stopped with 50 μL of stop solution (250 mM EDTA, 20 mM HEPES pH 7.4). 90 μL from each reaction are transferred onto streptavidin-coated 96-well plates. After 120 min incubation at RT the plates are washed three times with 200 μL phosphate-buffered saline (PBS) per well. The plates are incubated for 60 min with 100 μL of europium-coupled antibody against phospho-tyrosine (diluted 1/2000 in Perkin Elmer DELFIA assay buffer) per well. The plates are washed three times with 200 μL per well of DELFIA washing buffer. 100 μL DELFIA Enhancement Solution (Perkin Elmer) is added to each well, and the plates are incubated for 10 min. The fluorescence signal is measured with a Wallac Victor TRF Reader. IC50 values for the inhibition of the IGF-1R-kinase activity are calculated using the programmes Fifty (Version 2) and GraphPad (Version 3.0).

T1 sequence (P08069 964-1367 limits assumed): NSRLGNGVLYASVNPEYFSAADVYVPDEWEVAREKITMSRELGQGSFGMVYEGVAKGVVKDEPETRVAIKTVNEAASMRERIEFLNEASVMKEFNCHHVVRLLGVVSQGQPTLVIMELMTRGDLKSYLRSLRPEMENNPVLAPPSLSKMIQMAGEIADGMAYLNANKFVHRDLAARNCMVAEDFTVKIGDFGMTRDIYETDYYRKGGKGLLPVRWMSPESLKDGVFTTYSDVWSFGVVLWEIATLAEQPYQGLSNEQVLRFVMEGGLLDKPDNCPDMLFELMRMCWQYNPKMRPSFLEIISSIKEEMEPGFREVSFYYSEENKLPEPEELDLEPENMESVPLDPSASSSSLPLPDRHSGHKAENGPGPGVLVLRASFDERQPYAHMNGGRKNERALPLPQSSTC

Point of comparison: COc1cc(N2CCN(C(=O)C3CCN(C)CC3)CC2)ccc1Nc1ncc(C(F)(F)F)c(NCc2cccc3c2C(C)(C)C(=O)N3)n1 [Example I-87], IC50 3 nM. Against it:
- Cc1cc(C2CCCNC2)ccc1Nc1ncc(Br)c(NCc2cccc3c2C(C)(C)C(=O)N3)n1 (racemic) [Example I-7] — 4.3-fold lower, 0.69 nM
- CC(=O)N1CCC(n2cc(Nc3ncc(Cl)c(NCc4cccc5c4C(C)(C)C(=O)N5)n3)cn2)CC1 [Example I-2] — 7-fold higher, 21 nM
- CN1CCN(c2ccc(Nc3ncc(Br)c(NCc4cccc5c4CC(=O)N5)n3)cc2)CC1 [Example I-8] — 9.3-fold higher, 28 nM
- COc1cc(N2CCNCC2)ccc1Nc1ncc(Cl)c(NCc2cccc3c2C(C)(C)C(=O)N3)n1 [Example I-11] — 1.5-fold lower, 2 nM
- COc1cc(N2CCC(N3CCN(S(C)(=O)=O)CC3)CC2)ccc1Nc1ncc(C(F)(F)F)c(NCc2cccc3c2C(C)(C)C(=O)N3)n1 [Example I-25] — 2.3-fold higher, 7 nM
- COc1cc(N2CCC(N3CCN(S(C)(=O)=O)CC3)CC2)ccc1Nc1ncc(C(F)(F)F)c(NCc2cccc3c2CC(=O)N3)n1 [Example I-26] — 3-fold higher, 9 nM
- COc1cc(N2CCNCC2)ccc1Nc1ncc(C(F)(F)F)c(NCc2cccc3c2C(C)(C)C(=O)N3C)n1 [Example I-30] — the same, 3 nM
- CCOc1cc(N2CCNCC2)ccc1Nc1ncc(C(F)(F)F)c(NCc2cccc3c2C(C)(C)C(=O)N3)n1 [Example I-33] — 5-fold lower, 0.6 nM
- CN(C)CC(=O)N1CCC(c2ccc(Nc3ncc(Br)c(NCc4cccc5c4C(C)(C)C(=O)N5)n3)cc2)CC1 [Example I-42] — 3.8-fold lower, 0.79 nM
- CN(C)CC(=O)N1CCC(c2ccc(Nc3ncc(Cl)c(NCc4cccc5c4C(C)(C)C(=O)N5)n3)cc2)CC1 [Example I-43] — 2.3-fold higher, 7 nM
- CC(C)(C)OC(=O)N1CCC[C@H]1C(=O)N1CCC(c2ccc(Nc3ncc(Cl)c(NCc4cccc5c4C(C)(C)C(=O)N5)n3)cc2)CC1 [Example I-44] — 8.3-fold higher, 25 nM
- CC(C)(C)OC(=O)NCC(=O)N1CCC(c2ccc(Nc3ncc(Cl)c(NCc4cccc5c4C(C)(C)C(=O)N5)n3)cc2)CC1 [Example I-45] — 7.7-fold higher, 23 nM
- CN(CC(=O)N1CCC(c2ccc(Nc3ncc(Cl)c(NCc4cccc5c4C(C)(C)C(=O)N5)n3)cc2)CC1)C(=O)OC(C)(C)C [Example I-46] — 9.7-fold higher, 29 nM
- CC(C)(C)OC(=O)N1CC(C(=O)N2CCC(c3ccc(Nc4ncc(Cl)c(NCc5cccc6c5C(C)(C)C(=O)N6)n4)cc3)CC2)C1 [Example I-47] — 13-fold higher, 38 nM
- CC1(C)C(=O)Nc2cccc(CNc3nc(Nc4ccc(C5CCN(C(=O)[C@@H]6CCCN6)CC5)cc4)ncc3Cl)c21 [Example I-49] — 1.7-fold higher, 5 nM
- CC1(C)C(=O)Nc2cccc(CNc3nc(Nc4ccc(C5CCN(C(=O)CN)CC5)cc4)ncc3Cl)c21 [Example I-50] — the same, 3 nM
- CNCC(=O)N1CCC(c2ccc(Nc3ncc(Cl)c(NCc4cccc5c4C(C)(C)C(=O)N5)n3)cc2)CC1 [Example I-51] — 1.5-fold lower, 2 nM
- CC1(C)C(=O)Nc2cccc(CNc3nc(Nc4ccc(C5CCN(C(=O)C6CNC6)CC5)cc4)ncc3Cl)c21 [Example I-52] — 2.3-fold higher, 7 nM
- COc1cc(C2CCN(C(=O)CN(C)C)CC2)ccc1Nc1ncc(Cl)c(NCc2cccc3c2C(C)(C)C(=O)N3)n1 [Example I-58] — 3-fold lower, 1 nM
- COc1cc(N2CCN(C(=O)CCN3CCCC3)CC2)ccc1Nc1ncc(Cl)c(NCc2cccc3c2C(C)(C)C(=O)N3)n1 [Example I-59] — within 1.5-fold, 4 nM
- COc1cc(N2CCN(C(=O)C3CCN(C)CC3)CC2)ccc1Nc1ncc(Cl)c(NCc2cccc3c2C(C)(C)C(=O)N3)n1 [Example I-60] — the same, 3 nM
- COc1cc(N2CCN(C(=O)CN3CCN(C)CC3)CC2)ccc1Nc1ncc(Cl)c(NCc2cccc3c2C(C)(C)C(=O)N3)n1 [Example I-61] — the same, 3 nM
- COc1cc(N2CCN(C(=O)CN(C)C)CC2)ccc1Nc1ncc(Cl)c(NCc2cccc3c2C(C)(C)C(=O)N3)n1 [Example I-62] — 3-fold lower, 1 nM
- COc1cc(N2CCN(C(=O)C3CCCN(C)C3)CC2)ccc1Nc1ncc(Cl)c(NCc2cccc3c2C(C)(C)C(=O)N3)n1 (stereo not shown) [Example I-63] — 1.5-fold lower, 2 nM
- COc1cc(N2CCN(C(=O)CCCN(C)C)CC2)ccc1Nc1ncc(Cl)c(NCc2cccc3c2C(C)(C)C(=O)N3)n1 [Example I-64] — 1.5-fold lower, 2 nM
- COc1cc(N2CCN(C(C)=O)CC2)ccc1Nc1ncc(C(F)(F)F)c(NCc2cccc3c2CC(=O)N3)n1 [Example I-70] — 7-fold higher, 21 nM
- COc1cc(N2CCN(C(=O)N(C)C)CC2)ccc1Nc1ncc(C(F)(F)F)c(NCc2cccc3c2CC(=O)N3)n1 [Example I-71] — 17-fold higher, 50 nM
- CCOC(=O)N1CCN(c2ccc(Nc3ncc(C(F)(F)F)c(NCc4cccc5c4CC(=O)N5)n3)c(OC)c2)CC1 [Example I-72] — 24-fold higher, 72 nM
- COC(=O)N1CCN(c2ccc(Nc3ncc(C(F)(F)F)c(NCc4cccc5c4C(C)(C)C(=O)N5)n3)c(OC)c2)C[C@H]1C [Example I-73] — 9.7-fold higher, 29 nM
- CN(C)CCCC(=O)N1CCC(c2ccc(Nc3ncc(C(F)(F)F)c(NCc4cccc5c4C(C)(C)C(=O)N5)n3)cc2)CC1 [Example I-74] — 1.5-fold lower, 2 nM
- CN(C)CC(=O)N1CCC(c2ccc(Nc3ncc(C(F)(F)F)c(NCc4cccc5c4C(C)(C)C(=O)N5)n3)cc2)CC1 [Example I-75] — 1.5-fold lower, 2 nM
- COc1cc(N2CCN(C(=O)N(C)C)CC2)ccc1Nc1ncc(C(F)(F)F)c(NCc2cccc3c2C(C)(C)C(=O)N3)n1 [Example I-76] — 3.7-fold higher, 11 nM
- COc1cc(N2CCN(C(C)=O)CC2)ccc1Nc1ncc(C(F)(F)F)c(NCc2cccc3c2C(C)(C)C(=O)N3)n1 [Example I-77] — the same, 3 nM
- CCOc1cc(N2CCN(C(C)=O)CC2)ccc1Nc1ncc(C(F)(F)F)c(NCc2cccc3c2CC(=O)N3)n1 [Example I-78] — 10-fold higher, 30 nM
- CCOc1cc(N2CCN(C(C)=O)CC2)ccc1Nc1ncc(C(F)(F)F)c(NCc2cccc3c2C(C)(C)C(=O)N3)n1 [Example I-79] — within 1.5-fold, 4 nM
- COc1cc(N2CC3CC2CN3C(C)=O)ccc1Nc1ncc(C(F)(F)F)c(NCc2cccc3c2C(C)(C)C(=O)N3)n1 (stereo not shown) [Example I-80] — 16-fold higher, 47 nM
- COc1cc(N2CC3CC2CN3C(=O)N(C)C)ccc1Nc1ncc(C(F)(F)F)c(NCc2cccc3c2C(C)(C)C(=O)N3)n1 (stereo not shown) [Example I-81] — 27-fold higher, 81 nM
- COC(=O)N1CC2CC1CN2c1ccc(Nc2ncc(C(F)(F)F)c(NCc3cccc4c3C(C)(C)C(=O)N4)n2)c(OC)c1 (stereo not shown) [Example I-82] — 22-fold higher, 65 nM
- COCC(=O)N1CCN(c2ccc(Nc3ncc(C(F)(F)F)c(NCc4cccc5c4C(C)(C)C(=O)N5)n3)c(OC)c2)CC1 [Example I-83] — 1.7-fold higher, 5 nM
- COc1cc(N2CCN(C(=O)CN(C)C)CC2)ccc1Nc1ncc(C(F)(F)F)c(NCc2cccc3c2C(C)(C)C(=O)N3)n1 [Example I-84] — 10-fold lower, 0.3 nM
- COCCC(=O)N1CCN(c2ccc(Nc3ncc(C(F)(F)F)c(NCc4cccc5c4C(C)(C)C(=O)N5)n3)c(OC)c2)CC1 [Example I-85] — 3-fold higher, 9 nM
- COc1cc(N2CCN(C(=O)CCCN(C)C)CC2)ccc1Nc1ncc(C(F)(F)F)c(NCc2cccc3c2C(C)(C)C(=O)N3)n1 [Example I-86] — 3-fold lower, 1 nM
- COc1cc(N2CCN(C(=O)CN3CCN(C)CC3)CC2)ccc1Nc1ncc(C(F)(F)F)c(NCc2cccc3c2C(C)(C)C(=O)N3)n1 [Example I-88] — 3-fold higher, 9 nM
- COc1cc(N2CCN(C(=O)CCN(C)C)CC2)ccc1Nc1ncc(C(F)(F)F)c(NCc2cccc3c2C(C)(C)C(=O)N3)n1 [Example I-89] — 17-fold lower, 0.18 nM
- COc1cc(N2CCN(C(=O)C3CCCN(C)C3)CC2)ccc1Nc1ncc(C(F)(F)F)c(NCc2cccc3c2C(C)(C)C(=O)N3)n1 (stereo not shown) [Example I-90] — 9.4-fold lower, 0.32 nM
